Experimental data as given in ChEMBL document CHEMBL3390836, “Mannich- and LedererManasse-based analogues of the natural product S-(+)-curcuphenol as cancer proliferation and migration inhibitors” (Medchemcomm, 2012).

Experiments:
[1] = tested on: ACHN; experiment: Cytotoxicity against human ACHN cells assessed as cell growth at 10 uM after 48 hrs by SRB assay relative to control; type: functional; conditions: read-out: Activity
[2] = tested on: A549; experiment: Cytotoxicity against human A549 cells assessed as cell growth at 10 uM after 48 hrs by SRB assay relative to control; type: functional; conditions: A549, 48 h, read-out: Activity
[3] = tested on: SF-295; experiment: Cytotoxicity against human SF295 cells assessed as cell growth at 10 uM after 48 hrs by SRB assay relative to control; type: functional; conditions: SF-295, 48 h, read-out: Activity
[4] = tested on: MCF7; experiment: Cytotoxicity against human MCF7 cells assessed as cell growth at 10 uM after 48 hrs by SRB assay relative to control; type: functional; conditions: MCF7, 48 h, read-out: Activity
[5] = tested on: SK-MEL-5; experiment: Cytotoxicity against human SK-MEL-5 cells assessed as cell growth at 10 uM after 48 hrs by SRB assay relative to control; type: functional; conditions: SK-MEL-5, 48 h, read-out: Activity
[6] = Cytotoxicity against human UACC62 cells assessed as cell growth at 10 uM after 48 hrs by SRB assay relative to control; type: functional; conditions: UACC-62, 48 h, read-out: Activity
[7] = tested on: SW-620; experiment: Cytotoxicity against human SW620 cells assessed as cell growth at 10 uM after 48 hrs by SRB assay relative to control; type: functional; conditions: SW-620, 48 h, read-out: Activity
[8] = tested on: NCI-H226; experiment: Cytotoxicity against human NCI-H226 cells assessed as cell growth at 10 uM after 48 hrs by SRB assay relative to control; type: functional; conditions: NCI-H226, 48 h, read-out: Activity
[9] = tested on: SF-539; experiment: Cytotoxicity against human SF539 cells assessed as cell growth at 10 uM after 48 hrs by SRB assay relative to control; type: functional; conditions: SF-539, 48 h, read-out: Activity
[10] = tested on: T47D; experiment: Cytotoxicity against human T47D cells assessed as cell growth at 10 uM after 48 hrs by SRB assay relative to control; type: functional; conditions: read-out: Activity
[11] = tested on: NCI-H23; experiment: Cytotoxicity against human NCI-H23 cells assessed as cell growth at 10 uM after 48 hrs by SRB assay relative to control; type: functional; conditions: NCI-H23, 48 h, read-out: Activity
[12] = tested on: SNB-75; experiment: Cytotoxicity against human SNB75 cells assessed as cell growth at 10 uM after 48 hrs by SRB assay relative to control; type: functional; conditions: SNB-75, 48 h, read-out: Activity
[13] = tested on: A498; experiment: Cytotoxicity against human A498 cells assessed as cell growth at 10 uM after 48 hrs by SRB assay relative to control; type: functional; conditions: A498, 48 h, read-out: Activity
[14] = tested on: IGROV-1; experiment: Cytotoxicity against human IGROV1 cells assessed as cell growth at 10 uM after 48 hrs by SRB assay relative to control; type: functional; conditions: IGROV-1, 48 h, read-out: Activity
[15] = tested on: MOLT-4; experiment: Cytotoxicity against human MOLT4 cells assessed as cell growth at 10 uM after 48 hrs by SRB assay relative to control; type: functional; conditions: MOLT-4, 48 h, read-out: Activity
[16] = tested on: SK-MEL-28; experiment: Cytotoxicity against human SK-MEL-28 cells assessed as cell growth at 10 uM after 48 hrs by SRB assay relative to control; type: functional; conditions: SK-MEL-28, 48 h, read-out: Activity
[17] = tested on: 786-0; experiment: Cytotoxicity against human 786-0 cells assessed as cell growth at 10 uM after 48 hrs by SRB assay relative to control; type: functional; conditions: 786-0, 48 h, read-out: Activity
[18] = Cytotoxicity against human SKOV3 cells assessed as cell growth at 10 uM after 48 hrs by SRB assay relative to control; type: functional; conditions: SK-OV-3, 48 h, read-out: Activity
[19] = Cytotoxicity against human EKVX cells assessed as cell growth at 10 uM after 48 hrs by SRB assay relative to control; type: functional; conditions: read-out: Activity
[20] = tested on: MDA-MB-231; experiment: Growth inhibition of human MDA-MB-231 cells after 72 hrs by MTT assay; type: functional, cell-based; conditions: MDA-MB-231, 72 h
[21] = tested on: CCRF-CEM; experiment: Cytotoxicity against human CCRF-CEM cells assessed as cell growth at 10 uM after 48 hrs by SRB assay relative to control; type: functional; conditions: read-out: Activity
[22] = tested on: MCF7; experiment: Growth inhibition of human MCF7 cells after 72 hrs by MTT assay; type: functional, cell-based; conditions: MCF7, 72 h
[23] = tested on: HL-60(TB); experiment: Cytotoxicity against human HL-60(TB) cells assessed as cell growth at 10 uM after 48 hrs by SRB assay relative to control; type: functional; conditions: HL-60, 48 h, read-out: Activity
[24] = Cytotoxicity against human OVCAR3 cells assessed as cell growth at 10 uM after 48 hrs by SRB assay relative to control; type: functional; conditions: OVCAR-3, 48 h, read-out: Activity
[25] = tested on: M14; experiment: Cytotoxicity against human M14 cells assessed as cell growth at 10 uM after 48 hrs by SRB assay relative to control; type: functional; conditions: M14, 48 h, read-out: Activity
[26] = tested on: SK-MEL-2; experiment: Cytotoxicity against human SK-MEL-2 cells assessed as cell growth at 10 uM after 48 hrs by SRB assay relative to control; type: functional; conditions: SK-MEL-2, 48 h, read-out: Activity
[27] = tested on: MDA-MB-231; experiment: Cytotoxicity against human MDA-MB-231 cells assessed as cell growth at 10 uM after 48 hrs by SRB assay relative to control; type: functional; conditions: MDA-MB-231, 48 h, read-out: Activity
[28] = tested on: KM12; experiment: Cytotoxicity against human KM12 cells assessed as cell growth at 10 uM after 48 hrs by SRB assay relative to control; type: functional; conditions: KM12, 48 h, read-out: Activity
[29] = tested on: HT-29; experiment: Cytotoxicity against human HT-29 cells assessed as cell growth at 10 uM after 48 hrs by SRB assay relative to control; type: functional; conditions: HT-29, 48 h, read-out: Activity
[30] = tested on: RXF 393; experiment: Cytotoxicity against human RXF393 cells assessed as cell growth at 10 uM after 48 hrs by SRB assay relative to control; type: functional; conditions: RXF 393, 48 h, read-out: Activity
[31] = Cytotoxicity against human NCI-ADR-RES cells assessed as cell growth at 10 uM after 48 hrs by SRB assay relative to control; type: functional; conditions: read-out: Activity
[32] = Cytotoxicity against human UO31 cells assessed as cell growth at 10 uM after 48 hrs by SRB assay relative to control; type: functional; conditions: UO-31, 48 h, read-out: Activity
[33] = tested on: MDA-MB-468; experiment: Cytotoxicity against human MDA-MB-468 cells assessed as cell growth at 10 uM after 48 hrs by SRB assay relative to control; type: functional; conditions: MDA-MB-468, 48 h, read-out: Activity
[34] = tested on: LOX IMVI; experiment: Cytotoxicity against human LOXIMVI cells assessed as cell growth at 10 uM after 48 hrs by SRB assay relative to control; type: functional; conditions: read-out: Activity
[35] = Cytotoxicity against human HCT116 cells assessed as cell growth at 10 uM after 48 hrs by SRB assay relative to control; type: functional; conditions: HCT-116, 48 h, read-out: Activity
[36] = tested on: COLO 205; experiment: Cytotoxicity against human COLO205 cells assessed as cell growth at 10 uM after 48 hrs by SRB assay relative to control; type: functional; conditions: COLO 205, 48 h, read-out: Activity

| SMILES | growth at 10 µM [1] [%] | growth at 10 µM [2] [%] | growth at 10 µM [3] [%] | growth at 10 µM [4] [%] | growth at 10 µM [5] [%] | growth at 10 µM [6] [%] | growth at 10 µM [7] [%] | growth at 10 µM [8] [%] | growth at 10 µM [9] [%] | growth at 10 µM [10] [%] | growth at 10 µM [11] [%] | growth at 10 µM [12] [%] | growth at 10 µM [13] [%] | growth at 10 µM [14] [%] | growth at 10 µM [15] [%] | growth at 10 µM [16] [%] | growth at 10 µM [17] [%] | growth at 10 µM [18] [%] | growth at 10 µM [19] [%] | IC50 [20] [µM] | other results |
| --- | --- | --- | --- | --- | --- | --- | --- | --- | --- | --- | --- | --- | --- | --- | --- | --- | --- | --- | --- | --- | --- |
| COc1ccc(CCN2COc3c([C@@H](C)CCC=C(C)C)ccc(C)c3C2)cc1OC | 41 | 51 | -18 | 4 | -96 | 19 | -59 | 47 | 25 | -64 | -29 | 61 | 7 | -44 | 23 | -44 | -59 | 59 | 33 | 16.3 | growth at 10 µM [21]: 14%; IC50 [22]: 6.7 µM; growth at 10 µM [23]: 18%; growth at 10 µM [24]: 16%; growth at 10 µM [25]: -91%; growth at 10 µM [26]: -68%; growth at 10 µM [27]: -3%; growth at 10 µM [28]: -2%; growth at 10 µM [29]: -29%; growth at 10 µM [30]: -35%; growth at 10 µM [31]: -2%; growth at 10 µM [32]: 10%; growth at 10 µM [33]: -70%; growth at 10 µM [34]: -65%; growth at 10 µM [35]: -43%; growth at 10 µM [36]: -99% |
| CC(C)=CCC[C@H](C)c1ccc(C)c2c1OCN(CC1CCNCC1)C2 | 64 | 54.1 | 80 | 36 | 30 | 63.5 | 28 | 94 | 73 | -94.4 | 79 | 62 | 64 | 78.7 | 34.1 | 86 | -60.1 | 87 | 81 | 14.9 | growth at 10 µM [21]: 26.7%; IC50 [22]: 8.1 µM; growth at 10 µM [23]: 13.8%; growth at 10 µM [24]: 77.2%; growth at 10 µM [25]: -95.4%; growth at 10 µM [26]: 95%; growth at 10 µM [27]: 64%; growth at 10 µM [28]: 38.4%; growth at 10 µM [29]: -68.5%; growth at 10 µM [30]: 55.2%; growth at 10 µM [31]: 83.5%; growth at 10 µM [32]: 60.5%; growth at 10 µM [33]: 7.48%; growth at 10 µM [34]: -70.5%; growth at 10 µM [35]: -37.2%; growth at 10 µM [36]: 75.9% |
| CC(C)=CCC[C@H](C)c1ccc(C)c(CNCC2CCNCC2)c1O | 81 | 86 | 67 | 78.2 | 73 | 13.2 | 86 | 72 | 84 | 88 | 84 | 71 | 65 | 83.4 | 77 | 91 | 81.2 | 83 | 67 | 18.3 | growth at 10 µM [21]: 71.3%; IC50 [22]: > 20 µM; growth at 10 µM [23]: 99%; growth at 10 µM [24]: 83%; growth at 10 µM [25]: 46.7%; growth at 10 µM [26]: 102%; growth at 10 µM [27]: 69%; growth at 10 µM [28]: 84%; growth at 10 µM [29]: 8.29%; growth at 10 µM [30]: 65%; growth at 10 µM [31]: 84%; growth at 10 µM [32]: 64.3%; growth at 10 µM [33]: 70%; growth at 10 µM [34]: 37.1%; growth at 10 µM [35]: 63%; growth at 10 µM [36]: -59% |
